According to US20260053811A1, “METHODS OF TREATING HYPERTENSION IN OBESE SUBJECTS” (Mineralys Therapeutics, Inc., priority 2022, published 2026):

Tested on: hypertensive subjects
Experiment: Seated automated office blood pressure (AOBP) in randomized, placebo-controlled, dose-ranging study
Format: in vivo, human
Settings: Part 1
Description: A randomized, double-blinded, placebo-controlled, dose-ranging, multicenter study was conducted to evaluate the effect of orally administered Compound A HBr on blood pressure for the treatment of hypertension in male and female subjects ≥18 years of age.
The study consists of two parts. For enrollment into Part 1 of the study, a subject's value of plasma renin activity (PRA) must be ≤1 ng/mL/h based on morning measurement. If the value of PRA >1 ng/mL/h based on morning measurement, then subjects may be eligible to enter Part 2 of the study.
For Part 1, 163 enrolled subjects ≥18 years of age were randomized into 6 equal treatment groups (1:1:1:1:1:1) to 12.5 mg BID, 25 mg BID, 12.5 mg QD, 50 mg QD, 100 mg QD, or placebo. After a review of interim clinical data, the 2 lowest dose levels (12.5 mg QD and 12.5 mg BID) were stopped for future randomization due to a lack of consistent meaningful reduction of blood pressure, but the patients randomized to that point remained in the study through completion. Thus, after the review of interim clinical data, subjects were randomized into 4 equal treatment groups (1:1:1:1) to 25 mg BID, 50 mg QD, 100 mg QD, or placebo.
For Part 2, 36 enrolled subjects ≥18 years of age were randomized (5:1) to either 100 mg QD Compound A HBr or placebo such that the Compound A HBr treatment group consisted of approximately 30 subjects and the placebo treatment group will consist of approximately 6 subjects.
Subjects orally administered the assigned study drug (Compound A HBr or placebo) according to the assigned dosing regimen for 8 weeks beginning on Study Day 1. All subjects in Part 1 (regardless of dosing group) received BID dosing to preserve the integrity of the blind; active drug is administered as the morning dose for all QD dose groups. Subjects returned to the research facility or were seen by the clinical investigator or approved home health care professional at the end of Study Weeks 1, 2, 3, 4, 5, 6, 7, and 8 (±2 days) for protocol-defined efficacy and safety assessments and procedures, assessment of adverse events (AEs), and confirmation of compliance with study drug usage. Subjects also completed a telephone visit and blood pressure (BP) check at home approximately 3 days post last dose of study drug. Subjects attended up to 14 full clinic visits, including a pre-Screening visit, a Screening/start of Placebo Run-in visit, a second visit during Placebo Run-in, a clinic visit to initiate the ABPM procedure, a Randomization visit, 8 weekly visits during double-blind treatment, and an end-of-study visit scheduled 4 weeks after the last study treatment for final efficacy and safety assessments.
An automated oscillometric sphygmomanometer device was used to measure the subjects' systolic and diastolic blood pressure in office after approximately 5 minutes of rest in the seated position.
The primary endpoint is the change in office-measured (mean of last 2 of 5 unattended measurements using an automated oscillometric sphygmomanometer device after approximately 5 minutes of rest in the seated position) systolic blood pressure (SBP) from baseline to the end of Study Week 8.
Secondary endpoints of this study were: • (a) Change in 24-hour ambulatory blood pressure monitoring (ABPM) parameters (systolic and diastolic) from baseline to the end of Study Week 7. • (b) Change in office-measured SBP from baseline to the end of Study Weeks 1, 2, 3, 4, 5, 6, and 7. • (c) Change in office-measured diastolic blood pressure (DBP) from baseline to the end of Study Weeks 1, 2, 3, 4, 5, 6, 7, and 8. • (d) Proportion of subjects who achieve office-measured BP of ≤130/80 mm Hg by the end of Study Week 8.

[1] = 25 mg BID, BMI at baseline 25-30 kg/m^2
[2] = 25 mg BID, BMI at baseline <25 kg/m^2
[3] = 25 mg BID, BMI at baseline >30 kg/m^2
[4] = 25 mg BID, Seated SBP Tertile High
[5] = 25 mg BID, Seated SBP Tertile Low
[6] = 25 mg BID, Seated SBP Tertile Middle
[7] = 25 mg BID, Systolic Blood Pressure Tertile at Baseline High
[8] = 25 mg BID, Systolic Blood Pressure Tertile at Baseline Low
[9] = 25 mg BID, Systolic Blood Pressure Tertile at Baseline Middle
[10] = 25 mg BID, Thiazide Diuretic Use at Baseline No
[11] = 25 mg BID, Thiazide Diuretic Use at Baseline Yes

SMILES: CC(=O)N[C@H]1CC[C@H](NC(=O)CN2CCN(c3nncc(-c4ccc(C)cc4)n3)CC2)CC1 [Compound A HBr]
- Mean (SD) Change from Baseline at Week 8 in Automated Office-Measured Diastolic Blood Pressure (25 mg BID, BMI >30 kg/m^2): −5.33 (8.88) mmHg
- Mean (SD) Automated Office-Measured Systolic Blood Pressure at Wk 8 [1]: 134.11 (15.72) mmHg
- Mean (SD) Change from Baseline at Week 8 in Automated Office-Measured Systolic Blood Pressure [1]: −4.89 (13.17) mmHg
- Mean (SD) Automated Office-Measured Systolic Blood Pressure at Wk 8 [2]: 126.25 (18.52) mmHg
- Mean (SD) Change from Baseline at Week 8 in Automated Office-Measured Systolic Blood Pressure [2]: −18.13 (15.56) mmHg
- Mean (SD) Automated Office-Measured Systolic Blood Pressure at Wk 8 [3]: 130.93 (17.43) mmHg
- Mean (SD) Change from Baseline at Week 8 in Automated Office-Measured Systolic Blood Pressure [3]: −11.13 (13.83) mmHg
- Mean (SD) Automated Office-Measured Diastolic Blood Pressure at Wk 8 (25 mg BID, Race Black or AA): 75.43 (10.05) mmHg
- Mean (SD) Automated Office-Measured Systolic Blood Pressure at Wk 8 (25 mg BID, Race Black or AA): 124.00 (15.68) mmHg
- Mean (SD) Change from Baseline at Week 8 in Automated Office-Measured Diastolic Blood Pressure (25 mg BID, Race Black or AA): −7.79 (9.03) mmHg
- Mean (SD) Change from Baseline at Week 8 in Automated Office-Measured Systolic Blood Pressure (25 mg BID, Race Black or AA): −13.29 (15.91) mmHg
- Mean (SD) Automated Office-Measured Diastolic Blood Pressure at Wk 8 (25 mg BID, Race Other): 75.43 (14.14) mmHg
- Mean (SD) Automated Office-Measured Systolic Blood Pressure at Wk 8 (25 mg BID, Race Other): 133.71 (16.53) mmHg
- Mean (SD) Change from Baseline at Week 8 in Automated Office-Measured Diastolic Blood Pressure (25 mg BID, Race Other): −2.31 (12.36) mmHg
- Mean (SD) Change from Baseline at Week 8 in Automated Office-Measured Systolic Blood Pressure (25 mg BID, Race Other): −9.07 (13.59) mmHg
- Mean (SD) Automated Office-Measured Diastolic Blood Pressure at Wk 8 [4]: 74.00 (7.39) mmHg
- Mean (SD) Change from Baseline at Week 8 in Automated Office-Measured Diastolic Blood Pressure [4]: −7.36 (5.62) mmHg
- Mean (SD) Automated Office-Measured Diastolic Blood Pressure at Wk 8 [5]: 72.40 (9.55) mmHg
- Mean (SD) Change from Baseline at Week 8 in Automated Office-Measured Diastolic Blood Pressure [5]: −6.15 (8.84) mmHg
- Mean (SD) Automated Office-Measured Diastolic Blood Pressure at Wk 8 [6]: 79.09 (17.89) mmHg
- Mean (SD) Change from Baseline at Week 8 in Automated Office-Measured Diastolic Blood Pressure [6]: 0.91 (15.57) mmHg
- Mean (SD) Automated Office-Measured Diastolic Blood Pressure at Wk 8 (25 mg BID, Sex Female): 77.12 (15.02) mmHg
- Mean (SD) Automated Office-Measured Systolic Blood Pressure at Wk 8 (25 mg BID, Sex Female): 132.88 (16.99) mmHg
- Mean (SD) Change from Baseline at Week 8 in Automated Office-Measured Diastolic Blood Pressure (25 mg BID, Sex Female): −2.41 (13.79) mmHg
- Mean (SD) Change from Baseline at Week 8 in Automated Office-Measured Systolic Blood Pressure (25 mg BID, Sex Female): −10.62 (14.75) mmHg
- Mean (SD) Automated Office-Measured Diastolic Blood Pressure at Wk 8 (25 mg BID, Sex Male): 72.82 (9.34) mmHg
- Mean (SD) Automated Office-Measured Systolic Blood Pressure at Wk 8 (25 mg BID, Sex Male): 128.82 (16.45) mmHg
- Mean (SD) Change from Baseline at Week 8 in Automated Office-Measured Diastolic Blood Pressure (25 mg BID, Sex Male): −5.64 (7.70) mmHg
- Mean (SD) Change from Baseline at Week 8 in Automated Office-Measured Systolic Blood Pressure (25 mg BID, Sex Male): −9.36 (13.49) mmHg
- Mean (SD) Automated Office-Measured Systolic Blood Pressure at Wk 8 [7]: 139.86 (16.99) mmHg
- Mean (SD) Change from Baseline at Week 8 in Automated Office-Measured Systolic Blood Pressure [7]: −14.14 (13.63) mmHg
- Mean (SD) Automated Office-Measured Systolic Blood Pressure at Wk 8 [8]: 120.70 (13.06) mmHg
- Mean (SD) Change from Baseline at Week 8 in Automated Office-Measured Systolic Blood Pressure [8]: −12.50 (13.48) mmHg
- Mean (SD) Automated Office-Measured Systolic Blood Pressure at Wk 8 [9]: 135.45 (15.29) mmHg
- Mean (SD) Change from Baseline at Week 8 in Automated Office-Measured Systolic Blood Pressure [9]: −5.41 (14.64) mmHg
- Automated Office-Measured Diastolic Blood Pressure, Week 8, Mean (SD) [10]: 74.36 (8.31) mmHg
- Mean (SD) Automated Office-Measured Systolic Blood Pressure at Wk 8 [10]: 132.45 (15.21) mmHg
- Mean (SD) Change from Baseline at Week 8 in Automated Office-Measured Diastolic Blood Pressure [10]: −6.09 (7.34) mmHg
- Mean (SD) Change from Baseline at Week 8 in Automated Office-Measured Systolic Blood Pressure [10]: −9.32 (14.08) mmHg
- Automated Office-Measured Diastolic Blood Pressure, Week 8, Mean (SD) [11]: 76.12 (15.60) mmHg
- Mean (SD) Automated Office-Measured Systolic Blood Pressure at Wk 8 [11]: 130.53 (17.84) mmHg
- Mean (SD) Change from Baseline at Week 8 in Automated Office-Measured Diastolic Blood Pressure [11]: −2.12 (13.83) mmHg
- Mean (SD) Change from Baseline at Week 8 in Automated Office-Measured Systolic Blood Pressure [11]: −10.65 (14.39) mmHg
- Mean (SD) Automated Office-Measured Systolic Blood Pressure at Wk 8 (50 mg QD, ACEi/ARB No): 131.13 (13.27) mmHg
- Mean (SD) Change from Baseline at Week 8 in Automated Office-Measured Systolic Blood Pressure (50 mg QD, ACEi/ARB No): −6.75 (15.62) mmHg
- Mean (SD) Automated Office-Measured Systolic Blood Pressure at Wk 8 (50 mg QD, ACEi/ARB Yes): 127.65 (14.07) mmHg
